Results taken from patent US8575136B2, “2-methylene-1α-hydroxy-18,19,21-trinorvitamin D3 analogs and uses thereof” (Wisconsin Alumni Research Foundation, priority 2006, dated 2013).
“Also recorded” adds a separate entry of the source.

Experiments:
[1] = Bone calcium mobilization (serum calcium); parameters: species or system Sprague-Dawley rats; settings: in vivo, rats, ip doses; FIG. 2
Description: Male, weanling Sprague-Dawley rats were placed on Diet 11 (0.47% Ca) diet+AEK for one week followed by Diet 11 (0.02% Ca)+AEK for 3 weeks. The rats were then switched to a diet containing 0.47% Ca for one week followed by two weeks on a diet containing 0.02% Ca. Dose administration began during the last week on 0.02% calcium diet. Four consecutive ip doses were given approximately 24 hours apart. Twenty-four hours after the last dose, blood was collected from the severed neck and the concentration of serum calcium determined as a measure of bone calcium mobilization. The first 10 cm of the intestine was also collected for intestinal calcium transport analysis using the everted gut sac method. The everted gut sac assay was carried out as previously described by Martin and Deluca, Am. J. Physiol. 216, 1351 (1969); (DeLuca et al., U.S. Pat. No. 4,188,345), which are incorporated by reference as if fully set forth herein. […]
Twenty-four hours after the final dose, approximately 1 ml of blood is allowed to coagulate at room temperature and then centrifuged at 3000×g for 15 minutes. […] The level of calcium is determined by diluting the serum into 0.1% lanthum chloride and measuring the absorbance on an atomic absorption spectrophotometer (Perkin Elmer Model 3110, Shelton, Conn.).

[2] = test system: 24-hydyroxylase (24Ohase) gene promoter upstream of a luciferase reporter gene in ROS 17/2.8 (bone) cells; assay: In vitro transcription assay (luciferase reporter); type: cell-based; settings: Ros17/2.8 (bone) cells, compared to 1α,25-dihydroxyvitamin D3; FIG. 5
Description: Transcription activity was measured in ROS 17/2.8 (bone) cells that were stably transfected with a 24-hydyroxylase (24Ohase) gene promoter upstream of a luciferase reporter gene (Arbour et al., 1998). Cells were given a range of doses. Sixteen hours after dosing the cells were harvested and luciferase activities were measured using a luminometer. (RLU=relative luciferase units)

[3] = test system: HL-60 cells; assay: HL-60 differentiation (nitro blue tetrazolium reduction); type: cell-based, human; settings: compared to 1α,25-dihydroxyvitamin D3; FIG. 4
Description: The study drugs were dissolved in ethanol and the concentrations determined using UV spectrophotometry. Serial dilutions were prepared so that a range of drug concentrations could be tested without changing the final concentration of ethanol (<0.2%) present in the cell cultures.
Human promyelocytic leukemia (HL60) cells were grown in RPMI-1640 medium containing 10% fetal bovine serum. The cells were incubated at 37° C. in the presence of 5% CO2.
HL60 cells were plated at 1.2×10^5 cells/ml. Eighteen hours after plating, cells in duplicate were treated with drug. Four days later, the cells were harvested and a nitro blue tetrazolium reduction assay was performed (Collins et al., 1979; J. Exp. Med. 149:969-974). The percentage of differentiated cells was determined by counting a total of 200 cells and recording the number that contained intracellular black-blue formazan deposits. Verification of differentiation to monocytic cells was determined by measuring phagocytic activity (data not shown).

[4] = target: T1, full-length recombinant rat vitamin D receptor (Rattus norvegicus, UniProt P13053); assay: Vitamin D receptor binding, competition with [3H]-1,25-(OH)2-D3; settings: compared to 1α,25-dihydroxyvitamin D3; FIG. 1
T1 construct: Full-length recombinant rat receptor was expressed in E. coli BL21(DE3) Codon Plus RIL cells; histidine tag (C); made in house; host or cells: E. coli BL21(DE3) Codon Plus RIL
T1 sequence (P13053 1-423): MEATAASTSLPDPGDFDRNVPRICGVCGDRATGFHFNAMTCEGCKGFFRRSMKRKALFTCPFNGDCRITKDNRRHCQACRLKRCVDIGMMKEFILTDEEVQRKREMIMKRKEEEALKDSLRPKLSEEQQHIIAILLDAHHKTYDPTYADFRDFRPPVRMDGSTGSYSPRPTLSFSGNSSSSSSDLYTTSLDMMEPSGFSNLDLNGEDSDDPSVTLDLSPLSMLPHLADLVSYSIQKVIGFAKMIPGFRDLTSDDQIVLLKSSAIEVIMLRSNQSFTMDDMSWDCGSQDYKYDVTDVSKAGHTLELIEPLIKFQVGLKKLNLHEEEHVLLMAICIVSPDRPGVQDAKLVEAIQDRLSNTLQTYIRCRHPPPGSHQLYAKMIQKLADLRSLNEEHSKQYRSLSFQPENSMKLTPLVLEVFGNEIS
Description: Full-length recombinant rat receptor was expressed in E. coli BL21(DE3) Codon Plus RIL cells and purified to homogeneity using two different column chromatography systems. The first system was a nickel affinity resin that utilizes the C-terminal histidine tag on this protein. The protein that was eluted from this resin was further purified using ion exchange chromatography (S-Sepharose Fast Flow). Aliquots of the purified protein were quick frozen in liquid nitrogen and stored at −80° C. until use. For use in binding assays, the protein was diluted in TEDK50 (50 mM Tris, 1.5 mM EDTA, pH7.4, 5 mM DTT, 150 mM KCl) with 0.1% Chaps detergent. The receptor protein and ligand concentration was optimized such that no more than 20% of the added radiolabeled ligand was bound to the receptor.
Radiolabeled ligand (^3H-1,25(OH)2D3, ˜159 Ci/mmole) was added in ethanol at a final concentration of 1 nM.
Radiolabeled and unlabeled ligands were added to 100 mcl of the diluted protein at a final ethanol concentration of <10%, mixed and incubated overnight on ice to reach binding equilibrium. The following day, 100 mcl of hydroxylapatite slurry (50%) was added to each tube and mixed at 10-minute intervals for 30 minutes. […] Total binding was determined from the tubes containing only radiolabeled ligand.

[5] = Intestinal calcium transport (everted gut sac method); parameters: species or system Sprague-Dawley rats; settings: in vivo, rats, ip doses; FIG. 3
Description: Male, weanling Sprague-Dawley rats were placed on Diet 11 (0.47% Ca) diet+AEK for one week followed by Diet 11 (0.02% Ca)+AEK for 3 weeks. The rats were then switched to a diet containing 0.47% Ca for one week followed by two weeks on a diet containing 0.02% Ca. Dose administration began during the last week on 0.02% calcium diet. Four consecutive ip doses were given approximately 24 hours apart. Twenty-four hours after the last dose, blood was collected from the severed neck and the concentration of serum calcium determined as a measure of bone calcium mobilization. The first 10 cm of the intestine was also collected for intestinal calcium transport analysis using the everted gut sac method. The everted gut sac assay was carried out as previously described by Martin and Deluca, Am. J. Physiol. 216, 1351 (1969); (DeLuca et al., U.S. Pat. No. 4,188,345), which are incorporated by reference as if fully set forth herein.
Both control and test articles are administered by intraperitoneal injection in 100 microliters for 4-7 consecutive days spaced approximately 24 hours apart.

In the case of `C=C1[C@H](O)CC(=C/C=C2\CCC[C@@H]3[C@@H](CCCCC(C)C)CC[C@@H]23)C[C@H]1O` [SX-99, 2-methylene-1α-hydroxy-18,19,21-trinorvitamin D3], the “bone calcium mobilization activity” value [1] was “significant bone calcium mobilization activity; also recorded: good ability to mobilize calcium from bone”, the “stimulating transcription of a reporter gene” value [2] was “less active” and the “inducing differentiation of HL-60 cells” value [3] was “slightly less active; also recorded: relatively high cell differentiation activity”. The “binding to the recombinant vitamin D receptor” value [4] was “considerably less active; also recorded: relatively high binding” and the “intestinal calcium transport activity” value [5] was “potent calcium transport activity; also recorded: significant intestinal calcium transport activity”.
